According to ChEMBL document CHEMBL1201862, “PubChem BioAssay data set” (2004):
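The compound was tested at five concentrations on cells cultured in 96-well plates, with a 48-hour exposure period. GI50 = concentration required for 50% inhibition of growth.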 The source made the active and inactive calls. Cut-off read from the data, not from the text of the source: active = GI50 up to about 1.1 µM and inactive = higher.

Assays:
Experiment in all cases: DTP human tumour cell line panel, 48 h
[1] = tested on: SF-295
[2] = tested on: 786-0
[3] = tested on: HL-60
[4] = tested on: HT-29
[5] = tested on: RPMI-8226
[6] = tested on: RXF 393
[7] = tested on: MDA-MB-231
[8] = tested on: EKVX
[9] = tested on: SK-MEL-5
[10] = tested on: DU-145
[11] = tested on: NCI/ADR-RES
[12] = tested on: ACHN
[13] = tested on: SK-MEL-2
[14] = tested on: SK-MEL-28
[15] = tested on: CCRF-CEM
[16] = tested on: NCI-H23
[17] = tested on: CAKI-1
[18] = tested on: OVCAR-3
[19] = tested on: UACC-257

SMILES	GI50 [1]	GI50 [2]	GI50 [3]	GI50 [4]	GI50 [5]	GI50 [6]	GI50 [7]	GI50 [8]	GI50 [9]	GI50 [10]	GI50 [11]	GI50 [12]	GI50 [13]	GI50 [14]	GI50 [15]	GI50 [16]	GI50 [17]	GI50 [18]	GI50 [19]
CN(C)CC/C=C1\c2ccccc2Sc2ccc(Cl)cc21	15.9 µM (inactive)	12.2 µM (inactive)	11.2 µM (inactive)	4.19 µM (inactive)	3.78 µM (inactive)	12.5 µM (inactive)	13.6 µM (inactive)	10.1 µM (inactive)	14 µM (inactive)	15.4 µM (inactive)	13.8 µM (inactive)	15.8 µM (inactive)	16.1 µM (inactive)	6.21 µM (inactive)	8.2 µM (inactive)	15.6 µM (inactive)	8.11 µM (inactive)	13.4 µM (inactive)	6.87 µM (inactive)
CC(=O)Nc1ccc2c3c(cc(O)c2c1)N(C(=O)CCCCC(=O)N1CC(CCl)c2c1cc(O)c1cc(NC(C)=O)ccc21)CC3CCl (stereo unspecified)	0.151 µM (active)	0.0528 µM (active)	< 0.01 µM (active)	0.301 µM (active)	0.169 µM (active)	0.153 µM (active)	0.29 µM (active)	2.38 µM (inactive)	0.129 µM (active)	< 0.01 µM (active)	21.3 µM (inactive)	0.0308 µM (active)	0.144 µM (active)	0.27 µM (active)	< 0.01 µM (active)	< 0.0161 µM (active)	0.745 µM (active)	0.209 µM (active)	0.181 µM (active)
COc1ccc(/C=C2\CCC(C)C3=C(c4ccc(OC)c(OC)c4)C(C#N)=C(N)OC32)cc1OC (stereo unspecified)	3.43 µM (inactive)	3.35 µM (inactive)	2.63 µM (inactive)	2.75 µM (inactive)	2.04 µM (inactive)	1.65 µM (inactive)	2.95 µM (inactive)	1.86 µM (inactive)	2.01 µM (inactive)	5.5 µM (inactive)	2.65 µM (inactive)	3.66 µM (inactive)	1.97 µM (inactive)	3.86 µM (inactive)	2.28 µM (inactive)	2.7 µM (inactive)	4.36 µM (inactive)	3.58 µM (inactive)	4.18 µM (inactive)
Cc1ccc([N+](=O)[O-])cc1S(=O)(=O)Nc1ccc(C2=NOC(c3ccccc3O)C2)cc1 (stereo unspecified)	3.85 µM (inactive)	8.65 µM (inactive)	2.17 µM (inactive)	4.61 µM (inactive)	4.26 µM (inactive)	2.26 µM (inactive)	4.5 µM (inactive)	17.1 µM (inactive)	4.68 µM (inactive)	13.3 µM (inactive)	2.54 µM (inactive)	13.1 µM (inactive)	2.74 µM (inactive)	12.8 µM (inactive)	8.93 µM (inactive)	10.4 µM (inactive)	9.42 µM (inactive)	3.72 µM (inactive)	5.97 µM (inactive)
COc1ccccc1Cn1[nH]c(=O)c2cc([N+](=O)[O-])ccc21		42 µM (inactive)	86.5 µM (inactive)	> 100 µM (inactive)	> 100 µM (inactive)	25.8 µM (inactive)	64.4 µM (inactive)	> 100 µM (inactive)	> 100 µM (inactive)	> 100 µM (inactive)	75.5 µM (inactive)	75 µM (inactive)	24.4 µM (inactive)	> 100 µM (inactive)	> 100 µM (inactive)	> 100 µM (inactive)	> 100 µM (inactive)	27.9 µM (inactive)	> 100 µM (inactive)
Cc1ccccc1OC(C)C(=O)NN1C(=O)CC(=O)NC1=S (stereo unspecified)	86.7 µM (inactive)	> 100 µM (inactive)	> 100 µM (inactive)	> 100 µM (inactive)	> 100 µM (inactive)	> 100 µM (inactive)	> 100 µM (inactive)	> 100 µM (inactive)	> 100 µM (inactive)	> 100 µM (inactive)	> 100 µM (inactive)	84.5 µM (inactive)	> 100 µM (inactive)	> 100 µM (inactive)		> 100 µM (inactive)	> 100 µM (inactive)	> 100 µM (inactive)	> 100 µM (inactive)
COc1cc(-c2ccccc2N)c2cccnc2c1OC	1.54 µM (inactive)	2.83 µM (inactive)	3.98 µM (inactive)	0.74 µM (active)	3.4 µM (inactive)	15.2 µM (inactive)	6.22 µM (inactive)	5.06 µM (inactive)	13 µM (inactive)	2.89 µM (inactive)	10.4 µM (inactive)	3.71 µM (inactive)	12.9 µM (inactive)	17.9 µM (inactive)	3.56 µM (inactive)	4.94 µM (inactive)	2.63 µM (inactive)	4.38 µM (inactive)	10.1 µM (inactive)
C[C@@H](CCO)OC1OC(COC(=O)C(C)(C)C)C(OC(=O)C(C)(C)C)C(OC(=O)C(C)(C)C)C1OC(=O)C(C)(C)C (stereo partly specified)	4.13 µM (inactive)	39.5 µM (inactive)	5.89 µM (inactive)	13.6 µM (inactive)	15.5 µM (inactive)	7.46 µM (inactive)	3.4 µM (inactive)	48.4 µM (inactive)	4.97 µM (inactive)	> 100 µM (inactive)	> 100 µM (inactive)	34.2 µM (inactive)	43.6 µM (inactive)	21.9 µM (inactive)	33.7 µM (inactive)	> 100 µM (inactive)	5.97 µM (inactive)	86.7 µM (inactive)	25.5 µM (inactive)
Cc1cc(N(CCOS(C)(=O)=O)CCOS(C)(=O)=O)ccc1/C=N/c1ccc(-c2csc(-c3ccccc3)n2)c(Cl)c1	2.36 µM (inactive)	2.05 µM (inactive)	2.45 µM (inactive)	9.91 µM (inactive)	11.2 µM (inactive)	2.12 µM (inactive)	20.6 µM (inactive)	4.47 µM (inactive)	7.6 µM (inactive)	1.67 µM (inactive)	13.3 µM (inactive)	0.575 µM (active)	21 µM (inactive)	21.6 µM (inactive)	1.1 µM (active)	5.98 µM (inactive)	0.179 µM (active)	8.65 µM (inactive)	20.4 µM (inactive)
O=C(CSc1nc2ccc(I)cc2c(=O)n1Cc1ccccc1)Nc1ccccc1	14.9 µM (inactive)	8.57 µM (inactive)	> 100 µM (inactive)	> 100 µM (inactive)	88.3 µM (inactive)	10 µM (inactive)	16.5 µM (inactive)	3.55 µM (inactive)	32.1 µM (inactive)	29.9 µM (inactive)	13.8 µM (inactive)	26 µM (inactive)	13.8 µM (inactive)	35.6 µM (inactive)	> 100 µM (inactive)	69.2 µM (inactive)	12.9 µM (inactive)	10.8 µM (inactive)	
CNC(=S)/C(C#N)=C(\N)N1CCN(C)CC1	> 100 µM (inactive)	> 100 µM (inactive)	> 100 µM (inactive)	> 100 µM (inactive)	> 100 µM (inactive)	> 100 µM (inactive)	30.5 µM (inactive)	> 100 µM (inactive)	> 100 µM (inactive)	> 100 µM (inactive)	> 100 µM (inactive)	> 100 µM (inactive)	> 100 µM (inactive)		> 100 µM (inactive)	> 100 µM (inactive)	> 100 µM (inactive)	> 100 µM (inactive)	> 100 µM (inactive)
O=c1ccn([C@@H]2C[C@H]2CO)c(=O)[nH]1		> 100 µM (inactive)	> 100 µM (inactive)	> 100 µM (inactive)	> 100 µM (inactive)	> 100 µM (inactive)	> 100 µM (inactive)	> 100 µM (inactive)	> 100 µM (inactive)	> 100 µM (inactive)	> 100 µM (inactive)	> 100 µM (inactive)	> 100 µM (inactive)	> 100 µM (inactive)	> 100 µM (inactive)	> 100 µM (inactive)	> 100 µM (inactive)		> 100 µM (inactive)
O=C(/C=C/c1ccc(O)cc1)c1cc(-c2cc(CCC(=O)c3ccc(O)cc3O)ccc2O)c(O)cc1O	22.3 µM (inactive)	25.6 µM (inactive)	17.9 µM (inactive)	14.4 µM (inactive)	16.3 µM (inactive)	41.5 µM (inactive)	37.8 µM (inactive)	> 50 µM (inactive)	25.2 µM (inactive)	32.4 µM (inactive)	> 50 µM (inactive)	> 50 µM (inactive)	33.7 µM (inactive)	21.7 µM (inactive)	13.1 µM (inactive)	35.9 µM (inactive)	> 50 µM (inactive)	14.1 µM (inactive)	> 50 µM (inactive)
CC(C)CC(N)C(=O)O (stereo unspecified)	> 100 µM (inactive)	> 100 µM (inactive)	> 100 µM (inactive)	> 100 µM (inactive)	> 100 µM (inactive)	> 100 µM (inactive)	> 100 µM (inactive)		> 100 µM (inactive)	> 100 µM (inactive)	> 100 µM (inactive)	> 100 µM (inactive)	> 100 µM (inactive)	> 100 µM (inactive)	> 100 µM (inactive)	> 100 µM (inactive)	> 100 µM (inactive)	> 100 µM (inactive)	> 100 µM (inactive)
C/C(=C(/C)c1ccc(O)cc1)c1ccc(O)cc1 [DIMETHYLSTILBESTROL]		61.9 µM (inactive)	41.4 µM (inactive)	48.8 µM (inactive)	34.9 µM (inactive)	56.8 µM (inactive)	> 100 µM (inactive)	8.95 µM (inactive)	19.5 µM (inactive)	87.3 µM (inactive)	45.5 µM (inactive)	28.8 µM (inactive)	10 µM (inactive)		42.3 µM (inactive)	43.6 µM (inactive)	37 µM (inactive)	46.6 µM (inactive)	43.4 µM (inactive)
